B1: leptin (protein, UniProt P41160 22-167, looked up)
Leptin: VPIQKVQDDTKTLIKTIVTRINDISHTQSVSAKQRVTGLDFIPGLHPILSLSKMDQTLAVYQQVLTSLPSQNVLQIANDLENLRDLLHLLAFSKSCSLPQTSGLQKPESLDGVLEASLYSTEVVALSRLQGSLQDILQQLDVSPEC
notes: adipocytokine, injected into Lep^ob/Lep^ob mice

Experiments:
[1] = test system: phosphorylation of Erk1 in fully differentiated 3T3-L1 adipocytes; assay: Erk phosphorylation in 3T3-L1 adipocytes; assay type: cell-based; conditions: 1 μg/ml Enho1^34-76, 15 minutes after application
Description: FIG. 11A illustrates the increase in Erk phosphorylation in 3T3-L1 adipocytes 15 minutes after the application of the secreted portion of protein Enho1 (Enho1^34-76; SEQ ID NO:10).
(§1) An experiment was conducted to test the use of a recombinant or synthetic forms of the short secreted polypeptide Enho1^34-76 (SEQ ID NO:10). A study was conducted where the response of adipocytes and hepatocytes, two potential sites of Enho1 action, to synthetic Enho1^34-76 was analyzed with changes in extracellular regulated kinase (ERK) as the measured response. ERK1/2 and p38α are important in the regulation of lipolysis and thermogenesis in adipocytes.
(§2) In addition, a shorter, second peptide was synthesized using amino acids 39 through 76 of SEQ ID NO:2, and called “Enho1^39-76” (SEQ ID NO:11).

[2] = test system: phosphorylation of Erk1 in HepG2 cells; assay: Erk phosphorylation in HepG2 cells; assay type: cell-based; conditions: 1 μg/ml Enho1^34-76, 15 minutes after application
Description: FIG. 11B illustrates the increase in Erk phosphorylation in HepG2 hepatocytes 15 minutes after the application of the secreted protein Enho1 (Enho1^34-76; SEQ ID NO:10).
as §1, §2

[3] = test system: Lep^ob/Lep^ob mice; assay: Leptin treatment of Lep^ob/Lep^ob mice, hepatic AK009710 (Enho1) mRNA by RealTime PCR; assay type: in vivo, mouse; conditions: liver of Lep^ob/Lep^ob mice, 4 injections of 0.5 mg/g leptin over 2 days, vs saline
Description: FIG. 3C illustrates the amount of hepatic AK009710 mRNA expression (given as a percent of expression with saline) in leptin-deficient Lep^ob/Lep^ob mice injected 4 times over 2 days with either saline or leptin (0.5 mg/g).
Quantitative RealTime PCR confirmed the microarray data showing a tendency for a modest reduction in the expression of AK009710 in liver of Mc3rKO (FIG. 3A). […] (FIG. 3C). […] Moreover, AK009710 expression correlated negatively with fasting glucose in diet-induced obese B6 mice (n=13, R^2=0.67, P<0.001) (data not shown).
Oligonucleotide primers targeted to AK009710 mRNA were utilized to measure AK009710 gene expression in liver cDNA from various mouse models of obesity and insulin resistance. Sequences of primers were: sense 5-[…]-3′ (SEQ ID NO:3), antisense 5′-[…]-3′ (SEQ ID NO:4), probe 5′-6FAM-[…]-BHQ-3′ (SEQ ID NO:5). In agreement with the initial microarray result, AK009710 mRNA was down regulated in the liver of Mc3r−/− mice compared to WT mice (by 55%, p<0.05; FIG. 3A). Next was examined the AK009710 liver mRNA expression in two other models of obesity: Mc4r−/− mice and leptin-deficient Lep^ob/Lep^ob mice. AK009710 mRNA was expressed at approximately 10-fold lower levels in both of these models compared to wild-type mice (WT) (FIG. 3B). […]

Molecule	phosphorylation of Erk1 [1]	phosphorylation of Erk1 [2]	hepatic Enho1 (AK009710) mRNA expression [3]
Enho1^34-76: synthetic peptide corresponding to amino acids 34 through 76 of SEQ ID NO:2, the mouse protein; secreted portion of Enho1 (CHSRSADVDSLSESSPNSSPGPCPEKAPPPQKPSHEGSYLLQP; mus sp.)	robust increase	robust increase	–
B1	–	–	significantly increased
